From US20070166414A1, “METHOD FOR ENHANCING TAMOXIFEN EFFICACY AS A CANCER THERAPEUTIC” (priority 2006, published 2007)
“Also recorded” adds a separate entry of the source.

Tests used:
[1] = system: proliferating cell nuclear antigen (PCNA); test: PCNA staining of endometrial tissue; assay type: in vivo, female rats; details: endometrium gland and stroma, diet 28 and 185 days, vs basal diet
Protocol: (§1) Four groups of female rats were fed the basal AIN-76A diet supplemented with: 1) vehicle (control), (2) tamoxifen (0.125 mg/Kg), (3) daidzein (140 mg/Kg), (4) tamoxifen (0.125 mg/Kg) plus daidzein (140 mg/Kg) combination. Rats were sacrificed at either 28 days (short term exposure) or 185 days (long term exposure) after diet initiation, and the endometrium was removed and processed for immunohistochemical and biochemical evaluations.

[2] = system: DMBA-induced rat mammary carcinogenesis; test: Chemoprevention study: DMBA-induced mammary tumors in rats fed experimental diets; details: for Survival (%): n=20; for Final tumor incidence: n=20, 114 days, * P<0.05, ** P<0.01 vs control (Fisher's exact test); for Latency (P-: P-value vs +control (DMBA) group, unpaired t-test; for Tumor burden (average tumor weight per group): in words, vs control (FIG. 2b)
Protocol: Chemoprevention Study. The diets were formulated by Harlan-Teklad (Madison, Wis. USA) to contain approximately the same amounts of protein, fat, and carbohydrates. The basal diet AIN-76A is free of soy products. The diets were also adjusted to contain similar amounts of methionine, cystine, and choline because these nutrients have been reported to affect mammary carcinogenesis. Daidzein and genistein were added in the basal diets as necessary (Table 1), at 140 and 105 mg/Kg of diet respectively. The selected isoflavone concentrations were based on the amounts present in the well-tolerated 16% (w/w) S PI diet (13). The tam oxifen dose of 0.125 mg/Kg diet was selected based on a previous study (24).
Virgin female Sprague-Dawley rats at 35 days of age were randomized by weight into 5 groups (20 rats per group) and fed basal AIN-76A diet. At 43 days of age, all but the control groups received basal diet supplemented with the appropriate test agents. After an additional week the animals received a single dose (12.5 mg) of DMBA intragastrically in sesame oil.
During the experimental period, the animals were weighed weekly. Palpation of mammary tumors began four weeks after animals received DMBA and continued until termination of the study. The date of appearance and location of every palpable tumor were recorded. Rats were observed daily to assess their general health. Rats were sacrificed by CO2 asphyxiation. Mammary tumors were coded by location, removed from the rat, and weighed. Sections of normal mammary tissue were also taken and either flash frozen in liquid nitrogen or formalin-fixed for paraffin embedding. The experiment and protocol was approved and performed in compliance with relevant laws and institutional guidelines according to the Animal Care Committee (01-142) and Animal Welfare Assurance (A3460.01) at the University of Illinois at Chicago.
Statistical analysis. A significant inhibition of tumor induction as achieved by administration of an inhibitor was defined as a statistically significant decrease (at 5% level) in tumor incidence, multiplicity, or latency period. Statistical comparison of tumor latency between groups was by unpaired t-test. The statistical significance of differences between mean tumor multiplicities was assessed using analysis of variance (ANOVA), and the Armitage'stest for trends in proportions (25). Tumor incidence rates were generated by the life table method, and compared by (one tailed) log-rank analysis (25).

[3] = LC-MS analysis of serum isoflavone levels; set-up: species or system female rats; details: rat, in vivo
Protocol: LC-MS analysis of isoflavone levels. Serum isoflavone levels of animals on the diets for four weeks without DMBA treatment were analysed. Blood was collected by orbital bleeding. Serum (400 μL) from each sample was transferred into a 2-mL Eppendorf tube. To each tube, 100 μL of 1 M (pH 5.0) buffer was added followed by vortex mixing, then 40 μL sulphatase (50 mg/mL, Sigma # S-3009) enzyme solution was added. After shaking, the mixture was incubated overnight in a 37° C. water bath (>17 h). The enzymatic hydrolysis was stopped by adding 1 mL ice-cold ethanol/acetonitrile (1:1; v/v), mixed and centrifuged at 4° C. for 15 minutes (10,000 rpm). The supernatant was removed and evaporated to dryness under vacuum. The resulting residue was reconstituted with 150 μL internal standard solution, and three aliquots (15 μL each) were analysed using LC-MS (HP 1100 LC-MS D) over an Xterra RP-18 column (2.1×100 mm, 3.5 μm). The mobile phase was 0.1% (v/v) formic acid followed by acetonitrile (containing 0.1% (v/v) formic acid). Elution was at 200 μL/min. The MSD was operated in negative electrospray ionisation mode with selected ion monitoring of m/z 253 for daidzein and internal standard (chrysin), m/z 269 for genistein, and m/z 241 for equol. Three to four samples from each group were analysed and resulting values are mean± SD.

endometrium DNA damage = test: DNA damage in endometrium by comet assay; assay type: in vivo, female rats; details: diet 28 or 185 days, vs basal diet
Protocol: as §1

PTEN = PTEN staining of endometrial tissue; assay type: in vivo, female rats; details: endometrium, diet 28 and 185 days
Protocol: as §1

[4] = system: 8-oxo-deoxyguanosine (8-oxo-dG); test: LC-UV-MS-MS quantification of 8-oxo-dG (oxidative DNA damage) in normal mammary glands; assay type: in vivo, female Sprague-Dawley rats; details: in words, vs +control (DMBA); FIG. 3
Protocol: DNA Hydrolysis. DNA was extracted from normal mammary tissue from six different rats from each group and dissolved in water at ˜2 mg/mL. Aliquots (50-μL) containing ˜100 μg of DNA were mixed with 50 μL of buffer (50 mM ammonium acetate, 0.2 mM ZnCl2, pH 5.3), 10 μL of nuclease P1 (0.4 unit/μL), and 8 μL of alkaline phosphatase (1 unit/μL in 10 mM Tris pH 7.4) and incubated at 37° C. for 30 minutes. […] Bedford, Mass. USA). The solution was centrifuged for 15 minutes at 12,000 rpm and 4° C. just before LC-UV-MS-MS analysis. LC-UV-MS-MS Quantification of Oxidized Nucleosides. The HPLC system consisted of a ThermoFinnigan (San Jose, Calif. USA) Surveyor MS pump coupled with an autosampler, a PDA detector and a YMC (Wilmington, N.C. USA) ODS-AQ C18 column (2.0×250 mm, 5 μm), and guard column (4.0×20 mm). Absorbance detection at 240-290 nm was used for on-line HPLC quantification of dG and dC in the DNA hydrolysate, and a standard curve was prepared using standard solutions of dG and dC in the initial mobile phase. […] For DNA oxidation, the solvent system consisted of water/methanol 90:10 (v/v) at the start point and a linear gradient from 10 to 25% (v/v) methanol over 0-25 min. […] Selected reaction monitoring (SRM) was carried out using a TSQ Quantum triple quadruple mass spectrometer equipped with negative ion (for DNA oxidation) electrospray ionisation. Nitrogen was used as the sheath gas and auxiliary gas at 25 and 10 arbitrary units, respectively. The spray voltage was […]. Collision-induced dissociation (CID) was carried out using argon at 1.0-1.5 mTorr with the collision energy of 10-20 V. The span time per ion channel was 0.5 seconds during SRM. For 8-oxo-deoxyguanosine (8-oxo-dG), m/z 282>192 was selected as SRM (m/z 297>204 for the isotopically labelled internal standard). For 5-MedC, m/z 242>126 was selected as SRM (m/z 245>129 for the isotopically labelled internal standard).

[5] = system: implanted oestrogen-dependent MCF-7 cells; details: athymic mice; Cancer Research 62: 2474-2477; cited from earlier work
[6] = LC-MS analysis of serum isoflavone levels; assay type: in vivo, female rats; details: diet for four weeks, no DMBA; 3-4 rats per group; ± SEM
[7] = female, Sprague-Dawley, 4 weeks

Structure (SMILES) | Survival (%) ([2]; DMBA-exposed rats on diet) | Final tumor incidence ([2]; DMBA-exposed rats on diet) | Latency (P- [2] | Tumor burden (average tumor weight per group) [2] | Mean body weight ([2]; rat, in vivo) | Mean serum level of DAI (daidzein) [3, 7] | Mean serum level of Equol [3, 7] | Mean serum level of GEN (genistein) [3, 7] | Mean serum level of Equol [3] | Mean serum level of GEN (genistein) [3] | 8-oxo-dG levels (ratio 8-oxo-dG/dG) in mammary glands [4] | also measured
O=c1c(-c2ccc(O)cc2)coc2cc(O)ccc12 [DAI, 7-hydroxy-3-(4-hydroxyphenyl)-4H-1-benzopyran-4-one] | 95% | 85 | 0.322 | reduced tumor burden as effectively as tamoxifen | 99.2 | 3.6 ± 0.9 ng/mL | 115.0 ± 20.6 ng/mL | 1.2 ± 4.7 ng/mL | very high concentrations | very low levels | suppressed the levels of 8-oxo-dG equal to those of the group never exposed to DMBA | PCNA expression ([1]; listed as daidzein): increased expression of PCNA; PCNA expression ([1]; listed as diadzein): increased PCNA; DNA damage (comet assay) (endometrium DNA damage; listed as Daidzein): no damaging effect; DNA damage (comet assay) (endometrium DNA damage; listed as diadzein): did not affect the level of DNA damage; PTEN expression (PTEN; listed as daidzein): reduction in PTEN expression; PTEN expression (PTEN; listed as diadzein): reduced PTEN expression
O=c1c(-c2ccc(O)cc2)coc2cc(O)cc(O)c12 [GEN, genistein] | 95% | 85 | 0.326 | ineffective |  |  |  |  |  |  | ineffective | Mean body weight ([2]; DMBA-exposed rats on diet, control = 100.0): 100.7; Effect on tamoxifen inhibition of growth of implanted MCF-7 cells [5]: negated the inhibitory effect of tamoxifen; Mean serum level of DAI (daidzein) [6]: very low levels; Mean serum level of Equol [6]: not detectable
CC/C(=C(\c1ccccc1)c1ccc(OCCN(C)C)cc1)c1ccccc1 [TAM, tamoxifen] | 90% | 73* | 0.013 |  | 94.4 | 0.2 ± 0.0 ng/mL | 0.0 ng/mL | 0.8 ± 0.1 ng/mL | not detectable | very low levels | ineffective | PCNA expression [1]: increased expression of PCNA; also recorded: increased proliferating cell nuclear antigen (PCNA) expression; Increase of tumor latency over the control value ([2]; compared to positive control): 46%; Mean serum level of DAI (daidzein) [3]: very low levels; DNA damage (comet assay) (endometrium DNA damage; listed as Tamoxifen): significantly increased DNA damage; DNA damage (comet assay) (endometrium DNA damage; listed as tamoxifen): increased DNA damage; PTEN expression (PTEN): reduction in PTEN expression; also recorded: reduced PTEN expression
